Results on 14 molecules are retold here after patent US11149135B2, “Application of cyclodextrins (CDS) for remediation of perfluoroalkyl substances (PFASS)” (THE FLORIDA INTERNATIONAL UNIVERSITY BOARD OF TRUSTEES, priority 2017, dated 2021).

Molecules are shown by their SMILES. A value given as a limit tells only on which side of the number the result lay.

What all share (type): binding
Assay [1] in a line: 19F NMR association constants of β-CD:legacy PFAS complexes. The following applies: for K1:1 association constant: 1:1 β-CD:PFAS complex; for K1:1 association constant / K2:1 association constant: aqueous media, room temperature; for K2:1 association constant: 2:1 β-CD:PFAS complex; for Legacy PFAS Kassoc (1:1): 1:1 (unmarked value taken as 1:1). On the procedure: A detailed comprehensive Nuclear Magnetic Resonance (NMR) spectral study of the complexation of PFASs to β-CD was conducted, Weiss-Errico and O'Shea, J. Hazardous Mat. 2017 329, 57-65, with highlights herein. […] Competition studies with adamantane-carboxylic acid and phenol confirmed the persistence of the β-CD:PFAS complex. The aqueous solution pH, ionic strength, and the presence of humic acid have only a modest influence on the β-CD:PFAS complexes. Table 2 gives the association constants for β-CD complexes with a sample of the PFASs studied, including perfluoroheptanoic acid (PFHpA), perfluorooctanoic acid (PFOA), perfluorononanoic acid (PFNA), perfluorooctane sulfonate (PFOS), and perfluorooctanesulfonamide (PFOSA).

The nature of assay [2]: 19F NMR titration, average association constants of PFECAs with γ-CD. Also noted: key: *: no significant association. As to conditions: 50% D2O/50% H2O, pH 7; averaged over individual fluorines. As for the experimental part:
(§1) ^19F NMR spectroscopy was performed with a 400 MHz Bruker instrument with a quad probe (operating at 376.498 MHz for 19F). Hexafluorobenzene was used as the internal standard with a chemical shift of −164.9 ppm. For the titration experiments, the chemical shift of each peak was recorded, and the 1:1 and 2:1 association constants were calculated in GraphPad Prism and Mathworks Matlab by Ramos Cabrer et al.'s, Langmuir 1999, 15, 5489-5495 method.
(§2) The ^19F NMR spectrum of each PFECA was monitored as a function of CD concentration. The individual CD:PFECA association constants were determined via nonlinear least-squares regression analysis of the change in observed chemical shift. The association constants determined for individual fluorines were then averaged to find the average association constant for each PFECA with each CD.

The nature of assay [3]: 19F NMR titration, average association constants of PFECAs with β-CD. The following applies: for association constant with β-CD: 1:1 β-CD:PFECA; for Average association constant with β-CD (1:1): 1:1 β-CD:PFECA (unmarked values are 1:1); for Average association constant with β-CD (1:1) / Average association constant with β-CD (2:1): pH 7; for Decrease (1:1): decrease of 1:1 β-CD association constant versus legacy PFAS of the same chain length; for Emerging PFAS Kassoc (1:1): 1:1 (unmarked values taken as 1:1); for Average association constant with β-CD (2:1): 2:1 β-CD:PFECA. On the procedure: as §1, §2

The nature of assay [4]: 19F NMR titration, average association constants of PFECAs with α-CD. Also noted: key: *: no significant association. As to conditions: 50% D2O/50% H2O, pH 7; averaged over individual fluorines. On the procedure:
as §1, §2

Where [5] appears, read: estimated based on association constants from PFOA and PFNA.

Consider `O=C(O)C(F)(F)C(F)(F)C(F)(F)C(F)(F)C(F)(F)C(F)(F)C(F)(F)C(F)(F)C(F)(F)F` [PFDA, perfluorodecanoic acid], for which, in assay [1] (setting [5]), the “Legacy PFAS Kassoc (1:1), estimated” value is on record as ~10^5 (1:1) M^−1 and the “Legacy PFAS Kassoc (2:1), estimated” value is recorded as ~10^3 (2:1) M^−1.

`O=C(O)C(F)(F)C(F)(F)C(F)(F)OC(F)(C(F)(F)F)C(F)(F)F` [PFDMMOBA, perfluoro(5-oxa-6-dimethylhexanoic) acid]: in assay [2], the “Average association constant with γ-CD” value is listed as 6.85 +/− 1.82 × 10^2 M^−1. Also, in assay [3], the “association constant with β-CD” value was 26600 M⁻¹, the “Average association constant with β-CD (1:1)” value was 2.66 +/− 0.61 × 10^4 M^−1 and the “Decrease (1:1)” value was roughly 10. In addition, the “stronger complexation with β-CD than PFPrOPrA” value in assay [3] (ratio of β-CD association constants, PFDMMOBA versus PFPrOPrA) is given as roughly 40 ×. In assay [3] (β-CD:PFECA), the “Emerging PFAS Kassoc (1:1)” value was 2.66 +/− 0.61 × 10^4 M^−1. Further, the “Average association constant with α-CD” value in assay [4] is reported as “*”.

For the molecule `O=C(O)C(F)(F)C(F)(F)C(F)(F)C(F)(F)C(F)(F)C(F)(F)F` [PFHpA, perfluoroheptanoic acid], in assay [1], the “K1:1 association constant” value was 4.30 ± 0.85 × 10^5 M^−1 and the “K2:1 association constant” value was 2.30 ± 0.27 × 10^3 M^−1. Also, in assay [1] (β-CD:legacy PFAS), the “Legacy PFAS Kassoc (1:1)” value is on record as 4.30 +/− 0.85 x 10^5 (1:1) M^−1. For the same molecule, in assay [1] (β-CD:legacy PFAS, 2:1), the “Legacy PFAS Kassoc (2:1)” value is given as 2.30 +/− 0.27 × 10^3 (2:1) M^−1.

For `O=C(O)C(F)(F)C(F)(F)OC(F)(F)F` [PFMOBA, perfluoro(4-oxapentanoic) acid], the “Average association constant with γ-CD” value in assay [2] is on record as “*”. Further, in assay [3], the “association constant with β-CD” value came to 1480 M⁻¹, the “Average association constant with β-CD (1:1)” value is reported as 1.48 +/− 0.36 × 10^3 M^−1 and the “Decrease (1:1)” value was roughly 10. The “Emerging PFAS Kassoc (1:1)” value in assay [3] (β-CD:PFECA) is 1.48 +/− 0.36 × 10^3 M^−1. Further, in assay [4], the “Average association constant with α-CD” value is 3.37 +/− 1.40 × 10^1 M^−1.

As to `O=C(O)C(F)(F)OC(F)(F)F` [PFMOPrA, Perfluoro(3-oxabutanoic) acid], in assay [2], the “Average association constant with γ-CD” value is “*”. In assay [3], the “Average association constant with β-CD (1:1)” value is on record as 1.54 +/− 0.52 × 10^2 M^−1 and the “Decrease (1:1)” value is recorded as less than 10. For the same molecule, the “Emerging PFAS Kassoc (1:1)” value in assay [3] (β-CD:PFECA) is 1.54 +/− 0.52 × 10^2 M^−1. Besides, in assay [4], the “Average association constant with α-CD” value is 2.60 +/− 1.14 × 10^1 M^−1.

With `O=C(O)C(F)(F)C(F)(F)C(F)(F)C(F)(F)C(F)(F)C(F)(F)C(F)(F)C(F)(F)F` [PFNA, perfluorononanoic acid], in assay [1], the “K1:1 association constant” value is 3.37 ± 0.35 × 10^5 M^−1 and the “K2:1 association constant” value is on record as 7.80 ± 0.66 × 10^3 M^−1.

`O=C(O)C(F)(F)OC(F)(F)C(F)(F)OC(F)(F)C(F)(F)C(F)(F)C(F)(F)F` [PFO2DA, perfluoro(3,6-dioxadecanoic) acid]: in assay [2], the “Average association constant with γ-CD” value is recorded as 1.39 +/− 0.38 × 10^3 M^−1. Besides, in assay [3], the “Average association constant with β-CD (1:1)” value is listed as 1.38 +/− 0.40 × 10^4 M^−1, the “Average association constant with β-CD (2:1)” value was 7.72 +/− 2.43 × 10^3 M^−1 and the “Decrease (1:1)” value is roughly 10. In addition, the “Emerging PFAS Kassoc (1:1)” value in assay [3] (β-CD:PFECA) was 1.38 +/− 0.40 × 10^4 (1:1) M^−1. In addition, in assay [4], the “Average association constant with α-CD” value is reported as “*”.

`O=C(O)C(F)(F)OC(F)(F)C(F)(F)OC(F)(F)F` [PFO2HpA, perfluoro(3,6-dioxheptanoic) acid]: the “Average association constant with γ-CD” value in assay [2] is given as 8.43 +/− 3.24 × 10^1 M^−1. For the same molecule, in assay [3], the “Average association constant with β-CD (1:1)” value was 4.74 +/− 2.04 × 10^2 M^−1, the “Average association constant with β-CD (2:1)” value is 3.87 +/− 1.40 × 10^2 M^−1 and the “Decrease (1:1)” value was roughly 1000. In addition, in assay [3] (β-CD:PFECA), the “Emerging PFAS Kassoc (1:1)” value is recorded as 4.74 +/− 2.04 × 10^2 (1:1) M^−1. Besides, in assay [3] (β-CD:PFECA, 2:1), the “Emerging PFAS Kassoc (2:1)” value is on record as 3.87 +/− 1.40 × 10^2 (2:1) M^−1. The “Average association constant with α-CD” value in assay [4] is listed as 5.34 +/− 0.48 × 10^1 M^−1.

For the molecule `O=C(O)C(F)(F)OC(F)(F)C(F)(F)OC(F)(F)C(F)(F)OC(F)(F)F` [PFO3DA, perfluoro(3,6,9-trioxadecanoic) acid], the “Average association constant with γ-CD” value in assay [2] is 7.60 +/− 2.10 × 10^2 M^−1. For the same molecule, in assay [3], the “Average association constant with β-CD (1:1)” value is given as 3.03 +/− 1.09 × 10^3 M^−1, the “Average association constant with β-CD (2:1)” value was 4.12 +/− 1.08 × 10^3 M^−1 and the “Decrease (1:1)” value is roughly 100. Besides, the “Emerging PFAS Kassoc (1:1)” value in assay [3] (β-CD:PFECA) is given as 3.03 +/− 1.09 × 10^3 (1:1) M^−1. Further, the “Average association constant with α-CD” value in assay [4] is on record as 9.28 +/− 2.80 × 10^1 M^−1.

`O=C(O)C(F)(F)OC(F)(F)C(F)(F)OC(F)(F)C(F)(F)OC(F)(F)C(F)(F)C(F)(F)C(F)(F)F` [PFO3TDA, perfluoro-(3,6,9-trioxatridecanoic) acid]: the “Average association constant with γ-CD” value in assay [2] is given as 3.48 +/− 1.50 × 10^3 M^−1. In addition, in assay [3], the “Average association constant with β-CD (1:1)” value is recorded as 5.93 +/− 1.20 × 10^5 M^−1 and the “Average association constant with β-CD (2:1)” value is 1.36 +/− 0.28 × 10^5 M^−1. For the same molecule, the “Average association constant with α-CD” value in assay [4] is “*”.

With `O=S(=O)(O)C(F)(F)C(F)(F)C(F)(F)C(F)(F)C(F)(F)C(F)(F)C(F)(F)C(F)(F)F` [PFOS, perfluorooctane sulfonate], in assay [1], the “K1:1 association constant” value was 6.96 ± 0.79 × 10^5 M^−1 and the “K2:1 association constant” value is on record as 5.95 ± 1.70 × 10^4 M^−1.

`NS(=O)(=O)C(F)(F)C(F)(F)C(F)(F)C(F)(F)C(F)(F)C(F)(F)C(F)(F)C(F)(F)F` [PFOSA, perfluorooctanesulfonamide]: in assay [1], the “K1:1 association constant” value is 1.02 ± 0.16 × 10^5 M^−1 and the “K2:1 association constant” value is listed as 2.70 ± 0.57 × 10^4 M^−1.

For the molecule `O=C(O)C(F)(F)C(F)(F)C(F)(F)C(F)(F)F` [PFPA, perfluoropentanoic acid], the “Legacy PFAS Kassoc (1:1)” value in assay [1] (β-CD:legacy PFAS) was 7.60 +/− 0.44 × 10^2 M^−1.

On to `O=C(O)C(F)(OC(F)(F)C(F)(F)C(F)(F)F)C(F)(F)F` (stereo not drawn) [PFPrOPrA, Perfluoro(2-methyl-3-oxahexanoic) acid], for which the “Average association constant with γ-CD” value in assay [2] was “*”. Moreover, in assay [3], the “association constant with β-CD” value amounted to 745 M⁻¹, the “Average association constant with β-CD (1:1)” value was 7.45 +/− 4.27 × 10^2 M^−1 and the “Decrease (1:1)” value is roughly 100. For the same molecule, the “Emerging PFAS Kassoc (1:1)” value in assay [3] (β-CD:PFECA) is on record as 7.45 +/− 4.27 × 10^2 M^−1. In addition, the “Average association constant with α-CD” value in assay [4] is on record as 2.36 +/− 1.10 × 10^2 M^−1.
